Assay results taken from patent US8343475B2, “Small cationic antimicrobial peptides” (priority 2006, dated 2013).
Converted amounts (≈) assume the structure as drawn. Residues, ends and D or L forms follow the SMILES beside them.

Columns and labels:
[1] = test system: Pseudomonas aeruginosa PAO1 strain H103; format: cell-based
Procedure, shortened: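 Modified broth microdilution MIC in Mueller Hinton medium, peptides diluted in 0.01% acetic acid/0.2% BSA, polypropylene plates. Inoculum 2-7×10^5 CFU/ml, overnight at 37 °C; MIC is the lowest concentration with no visible growth.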

[2] = test system: ESBL E. cloacae; format: cell-based, Enterobacter cloacae
Protocol: (§1) Minimal inhibitory concentration (MIC) determination. The MIC of the peptides were measured using a modified broth microdilution method in Mueller Hinton (MH) medium (Wu M, Hancock R E W. 1999. Interaction of the cyclic antimicrobial cationic peptide bactenecin with the outer and cytoplasmic membrane. J Biol Chem 274, 29-35). Briefly, the peptides were dissolved and stored in glass vials. The assay was performed in sterile 96-well polypropylene microtitre plates were used. Serial dilutions of the peptides to be assayed were performed in 0.01% acetic acid (Fisher) containing 0.2% bovine serum albumin (Boehringer Mannheim GmbH) at 10× the desired final concentration. Ten microlitres of the 10× peptides were added to each well of a 96-well polypropylene plate containing 90 μl of MH media per well. Bacteria were added to the plate from an overnight culture at 2-7×10^5 colony forming units/ml and incubated over night at 37° C. The MIC was taken as the concentration at which no growth was observed.
(§2) All peptides derived from the 1st, 2nd, and 3rd quartiles were further evaluated for their antibacterial activities against several highly antibitoic resistant pathogens (Table 3). These included clinical isolates of MRSA, ESBL E. cloacae, and multidrug resistant Pseudomonas strains including Brazilian clinical isolates of P. aeruginosa that are resistant to meropenem, ceftazidime, piperacillin/tazobactam, ciprofloxacin, cefepime and polymyxin B, and the Liverpool Epidemic Strains. […] Such results characterize the developed peptides as excellent antibiotic candidates, providing new means for treating most dangerous and severe forms of human infections.

[3] = test system: clinical isolates of MRSA; format: cell-based, Staphylococcus aureus
Protocol: as §1, §2

[4] = test system: MCP-3 release by human PBMC; test: Chemokine induction in PBMC (capture ELISA); format: cell-based; details: background (6) subtracted
Procedure, shortened: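 Human PBMC from healthy donors (Ficoll-isolated), 7.5×10^5 cells at 0.75–1×10^6 cells/ml, treated with peptides at 20 or 100 μg/ml for 24 h at 37° C, 5% CO2. MCP-3 in cell-free supernatants measured by capture ELISA.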

[5] = test system: CXCL1 (Gro-α) release by human PBMC; test: Chemokine induction in PBMC (capture ELISA); format: cell-based; details: background (196) subtracted
Procedure, shortened: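 Human PBMC from healthy donors' heparinised blood (Ficoll), 7.5×10^5 cells treated with 20 or 100 μg/ml peptide for 24 h at 37° C, 5% CO2. Cell-free supernatants assayed for CXCL1 by capture ELISA.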

[6] = test system: lab isolate of Candida albicans; format: cell-based; details: lab isolate of
Procedure, shortened: (§3)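 First, peptides were serially diluted at ten times final strength in 0.01% acetic acid with 0.2% BSA. These were then added to Mueller Hinton medium and inoculated with overnight-grown organisms at 2-7×10^5 CFU/ml. After overnight incubation at 37° C, the MIC was scored as the concentration without growth.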

[7] = test system: wild-type Salmonella enterica ssp. typhimurium; format: cell-based
Procedure, shortened: as §3

[8] = test system: Staphylococcus aureus ATCC25923; format: cell-based; details: ATCC25923
Procedure, shortened: as §3

[9] = test system: clinical isolate of Staphylococcus epidermidis; format: cell-based; details: clinical isolate of
Procedure, shortened: as §3

[10] = test system: Escherichia coli UB1005; format: cell-based; details: UB1005
Procedure, shortened: as §3

[11] = test system: Enterococcus faecalis ATCC29212; format: cell-based; details: ATCC29212
Procedure, shortened: as §3

[12] = test system: ESBL Klebsiella pneumonia clinical strain 63575; format: cell-based
Protocol: as §1
(§4) The selected peptides were synthesized and assayed against several major antibiotic-resistant pathogens. Initially, the peptides were screened against the laboratory strain of P. aeruginosa PAO1 to compare the results with the training data. […] The antibacterial activity in the form of minimal inhibitory concentration (MIC) of the other studied peptides was assessed in greater depth (Table 9) against many highly antibiotic resistanct pathogens.

[13] = test system: ESBL E. coli clinical strain 64771; format: cell-based; details: ESBL clinical strain 64771
Protocol: as §1, §4

[14] = test system: multidrug resistant Pseudomonas maltophilia ATCC13637; format: cell-based
Protocol: as §1, §4

[15] = test system: MCP-1 release by human PBMC; test: Chemokine induction in PBMC (capture ELISA); format: cell-based; details: background (204) subtracted
Procedure, shortened: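 Heparinized blood from healthy volunteers; Ficoll-isolated human PBMC (7.5×10^5) treated with peptides at 20 or 100 μg/ml for 24 hours at 37° C, 5% CO2. Cell-free supernatants assayed for MCP-1 by capture ELISA.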

[16] = test system: Liverpool Epidemic Strains; format: cell-based, Pseudomonas aeruginosa
Protocol: as §1, §2

| SMILES | MIC [2] | MIC [3] | Chemokine induction MCP-3 ([4]; 20 μg/ml peptide) | Chemokine induction MCP-3 ([4]; 100 μg/ml peptide) | Chemokine induction Gro-α ([5]; 20 μg/ml peptide) | Chemokine induction Gro-α ([5]; 100 μg/ml peptide) | MIC [8] | MIC [11] | MIC [12] | MIC [13] | MIC [14] | Chemokine induction MCP-1 ([15]; 20 μg/ml peptide) | Chemokine induction MCP-1 ([15]; 100 μg/ml peptide) | MIC [16] | MIC against P. aeruginosa PAO1 ([1]; PAO1) | further results |
| --- | --- | --- | --- | --- | --- | --- | --- | --- | --- | --- | --- | --- | --- | --- | --- | --- |
| CC[C@H](C)[C@H](NC(=O)[C@H](CCCNC(=N)N)NC(=O)[C@H](C)NC(=O)[C@H](CC(C)C)NC(=O)[C@@H](N)CCCNC(=N)N)C(=O)N[C@H](C(=O)N[C@H](C(=O)N[C@H](C(=O)N[C@@H](CCCNC(=N)N)C(=O)N[C@H](C(=O)N[C@@H](C)C(=O)N[C@@H](CCCNC(=N)N)C(N)=O)C(C)C)[C@@H](C)CC)C(C)C)C(C)C [Bac2A, RLARIVVIRVAR-NH2, reference compound] (H-RLARIVVIRVAR-NH2; N-terminus assumed) | 24 µM (≈ 34.1 µg/mL) | 24 µM (≈ 34.1 µg/mL) | 2 pg/mL | 2 pg/mL | 9 pg/mL | 8 pg/mL | 24 µM (≈ 34.1 µg/mL) | 12 µM (≈ 17 µg/mL) | 192 µM (≈ 273 µg/mL) | 24 µM (≈ 34.1 µg/mL) | 3 µM (≈ 4.26 µg/mL) | 316 pg/mL | 442 pg/mL | 12 µM (≈ 17 µg/mL) |  | MIC P. aerug ([1]; PAO1): 50 µg/mL (≈ 35.2 µM); MIC C. albicans [6]: 9 µg/mL (≈ 6.33 µM); MIC S. typhi [7]: 34 µg/mL (≈ 23.9 µM); MIC S. aureus [8]: 17 µg/mL (≈ 12 µM); MIC S. epi. [9]: 4 µg/mL (≈ 2.82 µM); MIC E. coli [10]: 17 µg/mL (≈ 12 µM); MIC E. faecalis [11]: 17 µg/mL (≈ 12 µM) |
| CC[C@H](C)[C@H](NC(=O)[C@H](Cc1c[nH]c2ccccc12)NC(=O)[C@H](CCCCN)NC(=O)[C@@H](N)CCCNC(=N)N)C(=O)N[C@@H](Cc1c[nH]c2ccccc12)C(=O)N[C@@H](CCCNC(=N)N)C(=O)N[C@@H](Cc1c[nH]c2ccccc12)C(=O)N[C@@H](Cc1ccccc1)C(=O)N[C@@H](CC(C)C)C(N)=O [HHC75, RKWIWRWFL] (H-RKWIWRWFL-NH2; N-terminus assumed) | 3 µM (≈ 4.17 µg/mL) | 3 µM (≈ 4.17 µg/mL) | 34 pg/mL | 322 pg/mL | 554 pg/mL | 1683 pg/mL | 31 µM (≈ 43.1 µg/mL) | 6 µM (≈ 8.34 µg/mL) | 3.1 µM (≈ 4.31 µg/mL) | 1.5 µM (≈ 2.08 µg/mL) | 1.5 µM (≈ 2.08 µg/mL) | 1313 pg/mL | 6140 pg/mL | 1.5 µM (≈ 2.08 µg/mL) | 4 to 12 µM |  |
| CC[C@H](C)[C@H](N)C(=O)N[C@@H](Cc1c[nH]c2ccccc12)C(=O)N[C@@H](Cc1c[nH]c2ccccc12)C(=O)N[C@@H](CCCCN)C(=O)N[C@@H](Cc1c[nH]c2ccccc12)C(=O)N[C@@H](CCCNC(=N)N)C(=O)N[C@@H](CCCNC(=N)N)C(=O)N[C@@H](Cc1c[nH]c2ccccc12)C(=O)N[C@H](C(N)=O)C(C)C [HHC77, IWWKWRRWV] (H-IWWKWRRWV-NH2; N-terminus assumed) | 6 µM (≈ 8.49 µg/mL) | 3 µM (≈ 4.24 µg/mL) | 0 pg/mL | 23 pg/mL | -22 pg/mL | 50 pg/mL | 3 µM (≈ 4.24 µg/mL) | 24 µM (≈ 34 µg/mL) | 12 µM (≈ 17 µg/mL) | 6 µM (≈ 8.49 µg/mL) | 1.5 µM (≈ 2.12 µg/mL) | 98 pg/mL | 4548 pg/mL | 6 µM (≈ 8.49 µg/mL) | 4 to 12 µM |  |
| CC[C@H](C)[C@H](NC(=O)[C@H](Cc1ccccc1)NC(=O)[C@H](CCCCN)NC(=O)[C@H](Cc1ccccc1)NC(=O)[C@H](CCCNC(=N)N)NC(=O)[C@@H](N)CCCNC(=N)N)C(=O)N[C@@H](CCCNC(=N)N)C(=O)N[C@@H](Cc1c[nH]c2ccccc12)C(=O)N[C@@H](Cc1c[nH]c2ccccc12)C(N)=O [HHC100, RRFKFIRWW] (H-RRFKFIRWW-NH2; N-terminus assumed) | 12 µM (≈ 16.7 µg/mL) | 6 µM (≈ 8.36 µg/mL) | -1 pg/mL | 0 pg/mL | -18 pg/mL | -43 pg/mL | 6 µM (≈ 8.36 µg/mL) | 12 µM (≈ 16.7 µg/mL) | 49 µM (≈ 68.3 µg/mL) | 12 µM (≈ 16.7 µg/mL) | 0.8 µM (≈ 1.11 µg/mL) | 179 pg/mL | 197 pg/mL | 3 µM (≈ 4.18 µg/mL) | 4 to 12 µM |  |
| CC(C)[C@H](NC(=O)[C@H](CCCNC(=N)N)NC(=O)[C@H](CCCCN)NC(=O)[C@@H](NC(=O)[C@H](Cc1ccccc1)NC(=O)[C@H](CCCCN)NC(=O)[C@H](Cc1c[nH]c2ccccc12)NC(=O)[C@@H](NC(=O)[C@H](C)N)C(C)C)C(C)C)C(N)=O [HHC123, AVWKFVKRV] (H-AVWKFVKRV-NH2; N-terminus assumed) | >240 µM | 240 µM (≈ 272 µg/mL) | 0 pg/mL | 3 pg/mL | -25 pg/mL | 17 pg/mL | 240 µM (≈ 272 µg/mL) | >240 µM | >240 µM | 120 µM (≈ 136 µg/mL) | 60 µM (≈ 67.9 µg/mL) | 46 pg/mL | 204 pg/mL | 120 µM (≈ 136 µg/mL) |  | antimicrobial activity against P. aeruginosa PAO1 (in words) ([1]; laboratory strain P. aeruginosa PAO1): did not return any generally active substances |
